Data reported in patent US10160771B2, “Hepatitis C virus inhibitors and uses thereof in preparation of drugs” (priority 2014, dated 2018).

Legend:
[1] = system: HCV genotype 1a (HCV-1a) replicon cells; test: HCV genotype 1a replicon luciferase assay (EC50); type: cell-based, hepatitis C virus genotype 1a (H77 clone); details: 3 days, luciferase (Bright-Glo)
Outline: (§1)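 EC50 by nonlinear fitting of % inhibition from Bright-Glo luciferase signal after 3-day, 37° C. compound exposure (5-fold, 6 points from 100, 10 or 1 nM; 0.5% DMSO; duplicates). Cells: 1a replicon from H77 (K1691R/K2040R/S2204I) or 1b from Con1 (E1202G/T1280I/K1846T), 8000 per well.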

[2] = in vitro; type: cell-based; details: HCV 1a replicon cells, 3 days, Cell Titer-fluor
Protocol: The EC50 and CC50 values of anti-HCV compounds were determined by HCV genotype 1a (HCV-1a) and 1B (HCV-1b) stable transfer replication (replicon) cells. The source of genotype 1a replicon is H77 clones containing K1691R, K2040R and S2204I adaptive mutations. The source of genotype 1b replicon is Con1 clones containing E1202G, T1280I and K1846T adaptive mutations.
HCV Replicon Cell Lines: HCV-1a and HCV-1b Cells
The compound powder was dissolved in 100% DMSO. Then the compound was diluted 5 times with 6 points, and added into the cell plate with Echo liquid handler. Ensure the final concentration of DMSO was 0.5%. Each compound was tested in double holes. Maximum initial concentration was 100, 10 or 1 nM, 5 times dilution, 6 points.
b) Cell Culture (HCV-1a or HCV-1b Replicon Cell):
1) absorbing the culture supernatant of the cell culture and washing the cells with 10 mL PBS.
2) adding preheated pancreatin to the washed cell culture flasks, rotating culture bottle to make the bottom of the culture bottle uniformly covered by pancreatin, then placed into 37° C., 5% CO2 incubator to digest.
3) suspending cells in each T150 culture flask with 10-15 mL culture medium, absorbing 0.1 mL liquid and diluting 2 times by trypan blue solution as counted.
4) diluting cells to 8×10^4/mL with the culture medium, adding the diluted cells into the compound-containing 96-well plate (Greiner, Cat.#655090) (100 μL/well, 8000 cells/well) with automatic liquid separator (Thermo Scientific). Then place into a 37° C., 5% CO2 incubator for 3 days. Cell control well: no compound, only containing 0.5% DMSO.
5) adding chemiluminescent substrate Cell Titer-fluor to the cell well, after incubation for 30 minutes, detecting the signal by chemiluminescence detection system Envison (Ex at 405 nm and read at 515 nm). The effect of the compounds on the activity of HCV replicon cells was analyzed according to the luminescence data, which was used to calculate the CC50 values.
The EC50 or CC50 values were obtained by nonlinear fitting analysis on inhibition percentage (inh %) data with GraphPad Prism software.

[3] = Cell Titer-fluor cell activity assay in HCV-1b replicon cells (CC50); type: cell-based
Outline: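 CC50 derived by nonlinear fitting of inhibition % from Cell Titer-fluor signal (405/515 nm, 30 min). Cells: genotype 1b Con1 replicon carrying E1202G, T1280I, K1846T, seeded 8000/well with compound for 3 days, 37 °C, 0.5% DMSO; 6 points, 5-fold dilution, top 100, 10 or 1 nM, duplicates.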

[4] = system: HCV genotype 1b (HCV-1b) replicon cells; test: HCV genotype 1b replicon luciferase assay (EC50); type: cell-based, hepatitis C virus genotype 1b (Con1 clone); details: 3 days, luciferase (Bright-Glo)
Outline: as §1

Compound	EC50 ([1]; Hepatitis C virus, 72 h) [nM]	CC50 [2] [nM]	CC50 at 3 days [3] [nM]	EC50 ([4]; Hepatitis C virus, 72 h) [nM]	EC50 [1] [nM]	EC50 [4] [nM]
COC(=O)N[C@H](C(=O)N1CCCC1c1ccc(-c2ccc(-c3ccc(-c4cnc([C@@H]5CCCN5C(=O)[C@@H](NC(=O)OC)C(C)C)[nH]4)cc3)cc2)[nH]1)C(C)C (stereo partly drawn) [AG_001]	1 to 10	> 10	> 1	0.001 to 0.1		
COC(=O)N[C@H](C(=O)N1CCCC1c1[nH]c(-c2ccc(-c3ccc(-c4cnc([C@@H]5CCCN5C(=O)[C@@H](NC(=O)OC)C(C)C)[nH]4)cc3)cc2)c2c1CCCC2)C(C)C (stereo partly drawn) [AG_015]	10 to 100	> 100	> 10	0.001 to 0.1		
COC(=O)NC(C(=O)N1CCC[C@H]1c1ncc(-c2ccc(-c3ccc(-c4[nH]c(C5CCCN5C(=O)[C@@H](NC(=O)OC)C(C)C)c5c4CCC5)cc3)cc2)[nH]1)C1CCOCC1 (stereo partly drawn) [AG_035]	10 to 100	> 100	> 10	0.001 to 0.1		
COC(=O)NC(C(=O)N1CCCC1c1[nH]c(-c2ccc(-c3ccc(-c4cnc([C@@H]5CCCN5C(=O)[C@@H](NC(=O)OC)C(C)C)[nH]4)cc3)cc2)c2c1CCC2)C1CCOCC1 (stereo partly drawn) [AG_036]	1 to 10	> 100	> 10	0.001 to 0.1		
COC(=O)N[C@H](C(=O)N1CCC[C@H]1c1ncc(-c2ccc(-c3ccc(-c4ccc(C5CCCN5C(=O)[C@@H](NC(=O)OC)C5CCOCC5)[nH]4)cc3)cc2)[nH]1)C(C)C (stereo partly drawn) [AG_037]	0.101 to 1	> 100	> 10	0.001 to 0.1		
COC(=O)NC(C(=O)N1CCCC1c1ccc(-c2ccc(-c3ccc(-c4[nH]c(C5CCCN5C(=O)[C@H](NC(=O)OC)C(C)C)c5c4CCC5)cc3)cc2)[nH]1)C1CCOCC1 (stereo partly drawn) [AG_038]	10 to 100	> 100	> 10	0.101 to 1		
COC(=O)NC(C(=O)N1CCCC1c1[nH]c(-c2ccc(-c3ccc(-c4cnc([C@@H]5CCCN5C(=O)[C@@H](NC(=O)OC)C(C)C)[nH]4)cc3)cc2)c2c1CCCC2)C1CCOCC1 (stereo partly drawn) [AG_040]	10 to 100	> 100	> 10	0.101 to 1		
COC(=O)NC(C(=O)N1CCCC1c1[nH]c(-c2ccc(-c3ccc(-c4cnc([C@@H]5CCCN5C(=O)C(NC(=O)OC)C5CCOCC5)[nH]4)cc3)cc2)c2c1CCC2)C1CCOCC1 (stereo partly drawn) [AG_042]	1 to 10	> 100	> 100	0.101 to 1		
COC(=O)NC(C(=O)N1CCCC1c1[nH]c(-c2ccc(-c3ccc(-c4cnc([C@@H]5CCCN5C(=O)C(NC(=O)OC)C5CCOCC5)[nH]4)cc3)cc2)c2c1CCCC2)C1CCOCC1 (stereo partly drawn) [AG_045]	10 to 100	> 100	> 100	0.101 to 1		
CC[C@H](C)[C@H](NC(=O)OC)C(=O)N1CCC[C@H]1c1ncc(-c2ccc(-c3ccc(-c4ccc([C@@H]5CCCN5C(=O)[C@@H](NC(=O)OC)C(C)C)[nH]4)cc3)cc2)[nH]1 [AG_107]	1 to 10		> 1	0.001 to 0.1		
COC[C@H](NC(=O)OC)C(=O)N1CCC[C@H]1c1ccc(-c2ccc(-c3ccc(-c4cnc([C@@H]5CCCN5C(=O)[C@@H](NC(=O)OC)[C@@H](C)O)[nH]4)cc3)cc2)[nH]1 [AG_108]	0.101 to 1		> 1	0.001 to 0.1		
COC[C@H](NC(=O)OC)C(=O)N1CCC[C@H]1c1ccc(-c2ccc(-c3ccc(-c4cnc([C@@H]5CCCN5C(=O)[C@H](COC)NC(=O)OC)[nH]4)cc3)cc2)[nH]1 [AG_109]	0.101 to 1		> 1	0.001 to 0.1		
COC(=O)N[C@H](C(=O)N1CCC[C@H]1c1ccc(-c2ccc(-c3ccc(-c4cnc([C@@H]5CC6(CCCC6)CN5C(=O)[C@@H](NC(=O)OC)[C@@H](C)OC)[nH]4)cc3)cc2)[nH]1)[C@@H](C)OC [AG_110]	0.101 to 1		> 1	0.001 to 0.1		
COC(=O)N[C@H](C(=O)N1CC2(CCCC2)C[C@H]1c1ncc(-c2ccc(-c3ccc(-c4[nH]c([C@@H]5CCCN5C(=O)[C@@H](NC(=O)OC)[C@@H](C)OC)c5c4COC5)cc3)cc2)[nH]1)[C@@H](C)OC [AG_111]	0.101 to 1		> 1	0.001 to 0.1		
COC(=O)N[C@H](C(=O)N1CCC[C@H]1c1ccc(-c2ccc(-c3ccc(-c4cnc([C@H](C)NC(=O)[C@@H](NC(=O)OC)[C@@H](C)OC)[nH]4)cc3)cc2)[nH]1)C(C)OC (stereo partly drawn) [AG_112]	1 to 10		> 1	0.001 to 0.1		
COC[C@H](NC(=O)OC)C(=O)N1CCC[C@H]1c1ncc(-c2ccc(-c3ccc(-c4[nH]c([C@@H]5CCCN5C(=O)[C@@H](NC(=O)OC)C(C)OC)c5c4COC5)cc3)cc2)[nH]1 (stereo partly drawn) [AG_113]	0.101 to 1		> 1	0.001 to 0.1		
COC(=O)N[C@H](C(=O)N1CCC[C@@H]1c1[nH]c(-c2ccc(-c3ccc(-c4cnc([C@@H]5CCCN5C(=O)[C@@H](NC(=O)OC)C(C)C)[nH]4)cc3)cc2)c2c1CCCO2)C(C)C [AG_114_B]	10 to 100		> 1	0.101 to 1		
COC(=O)N[C@H](C(=O)N1CCC[C@H]1c1ccc(-c2ccc(-c3ccc(-c4cnc([C@@H]5CC6(CC6)CN5C(=O)[C@@H](NC(=O)OC)[C@@H](C)OC)[nH]4)cc3)cc2)[nH]1)[C@@H](C)OC [AG_115]	0.101 to 1		> 1	0.001 to 0.1		
COC(=O)N[C@H](C(=O)N1CC2(CC2)C[C@H]1c1ncc(-c2ccc(-c3ccc(-c4[nH]c([C@@H]5CCCN5C(=O)[C@@H](NC(=O)OC)[C@@H](C)OC)c5c4COC5)cc3)cc2)[nH]1)[C@@H](C)OC [AG_116]	0.001 to 0.1		> 1	0.001 to 0.1		
COC(=O)N[C@H](C(=O)N1CC2(CC2)C[C@H]1c1ncc(-c2ccc(-c3ccc(-c4[nH]c([C@@H]5CCCN5C(=O)[C@@H](NC(=O)OC)[C@@H](C)OC)c5c4COC5)cc3)cc2)[nH]1)C(C)C [AG_117]	0.101 to 1		> 1	0.001 to 0.1		
COC(=O)N[C@H](C(=O)N1CCC[C@H]1c1ccc(-c2ccc(-c3ccc(-c4cnc([C@@H]5CCCN5C(=O)[C@@H](NC(=O)OC)[C@@H](C)OC)[nH]4)cc3)cc2)[nH]1)[C@@H](C)OC [AG_118_B]	1 to 10		> 1	0.001 to 0.1		
COC(=O)N[C@@H](CO)C(=O)N1CCC[C@H]1c1ncc(-c2ccc(-c3ccc(-c4ccc([C@@H]5CCCN5C(=O)[C@@H](NC(=O)OC)C(C)OC)[nH]4)cc3)cc2)[nH]1 (stereo partly drawn) [AG_119]	0.101 to 1		> 1	0.001 to 0.1		
COC(=O)N[C@H](C(=O)N1CCC[C@H]1c1ccc(-c2ccc(-c3ccc(-c4cnc([C@@H]5CCCCN5C(=O)[C@@H](NC(=O)OC)[C@@H](C)OC)[nH]4)cc3)cc2)[nH]1)[C@@H](C)OC [AG_120]	1 to 10		> 1	0.001 to 0.1		
COC(=O)N[C@H](C(=O)N1CCC[C@H]1c1[nH]c(-c2ccc(-c3ccc(-c4cnc([C@@H]5CCCCN5C(=O)[C@@H](NC(=O)OC)[C@@H](C)OC)[nH]4)cc3)cc2)c2c1CCCO2)C(C)C [AG_121]	10 to 100		> 1	0.001 to 0.1		
COC(=O)N[C@H](C(=O)N1CCC[C@H]1c1ncc(-c2ccc(-c3ccc(-c4[nH]c([C@@H]5CCCN5C(=O)[C@@H](NC(=O)OC)C(C)C)c5c4OCC5)cc3)cc2)[nH]1)C(C)C [AG_122_A]			> 1		1 to 10	0.001 to 0.1
COC(=O)N[C@H](C(=O)N1CCC[C@@H]1c1[nH]c(-c2ccc(-c3ccc(-c4cnc([C@@H]5CCCN5C(=O)[C@@H](NC(=O)OC)C(C)C)[nH]4)cc3)cc2)c2c1CCO2)C(C)C [AG_122_B]	10 to 100		> 1	0.101 to 1		
COC(=O)N[C@H](C(=O)N1CCCC[C@H]1c1ncc(-c2ccc(-c3ccc(-c4[nH]c([C@@H]5CCCN5C(=O)[C@@H](NC(=O)OC)C(C)OC)c5c4COC5)cc3)cc2)[nH]1)C(C)C (stereo partly drawn) [AG_123]	1 to 10		> 1	0.001 to 0.1		
